Reference: the supplement of paper PMC10307832

Key:
Test in all cases: relative viability (nuclei count vs DMSO), 5 days (fraction); higher = more cells survive
NCI-H23 = test system: NCI-H23
Method in brief: (§1)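 For relative viability, nuclei counts in treated wells were divided by those in vehicle wells. Lung cancer cell lines had been pin-tool dosed in 1536-well plates the day after seeding and cultured for 5 days, then fixed and stained in one step (final 0.05% Triton X-100, 1% formaldehyde, 1 ug/ml Hoechst) and imaged at 4×. Doses were one drug alone or a fixed anchor-drug dose plus five library-drug doses (not always all listed) in √10 steps, and values are duplicate-plate medians.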

NCI-H2347 = test system: NCI-H2347
Method in brief: as §1

NCI-H1395 = test system: NCI-H1395
Method in brief: as §1

NCI-H2023 = test system: NCI-H2023
Method in brief: as §1

NCI-H650 = test system: NCI-H650
Method in brief: as §1

NCI-H2126 = test system: NCI-H2126
Method in brief: as §1

NCI-H3122 = test system: NCI-H3122
Method in brief: as §1

NCI-H838 = test system: NCI-H838
Method in brief: as §1

NCI-H1993 = test system: NCI-H1993
Method in brief: as §1

NCI-H2087 = test system: NCI-H2087
Method in brief: as §1

NCI-H596 = test system: NCI-H596
Method in brief: as §1

HCC-44 = test system: HCC-44
Method in brief: as §1

NCI-H1666 = test system: NCI-H1666
Method in brief: as §1

201T = test system: 201T
Method in brief: as §1

HARA = test system: HARA
Method in brief: as §1

NCI-H727 = test system: NCI-H727
Method in brief: as §1

NCI-H2009 = test system: NCI-H2009
Method in brief: as §1

BEN = test system: BEN
Method in brief: as §1

LOU-NH91 = test system: LOU-NH91
Method in brief: as §1

NCI-H647 = test system: NCI-H647
Method in brief: as §1

EMC-BAC-2 = test system: EMC-BAC-2
Method in brief: as §1

Compound `NC(=O)Nc1cc(-c2cccc(F)c2)sc1C(=O)N[C@H]1CCCNC1` [AZD7762] + CS(=O)(=O)CCNCc1ccc(-c2ccc3ncnc(Nc4ccc(OCc5cccc(F)c5)c(Cl)c4)c3c2)o1 [Lapatinib] (partner 2 µM) has a relative viability (NCI-H23; first compound 0.01 µM) of 1.08, a relative viability (NCI-H23; first compound 0.03162 µM) of 1.04 and a relative viability (NCI-H23; first compound 0.1 µM) of 1.18. For the same compound, the relative viability (NCI-H23; first compound 0.3162 µM) was 0.508, the relative viability (NCI-H23; first compound 1 µM) was 0.3 and the relative viability (NCI-H2347; first compound 0.01 µM) was 1.11. The relative viability (NCI-H2347; first compound 0.03162 µM) was 0.986, the relative viability (NCI-H2347; first compound 0.1 µM) was 1.07 and the relative viability (NCI-H2347; first compound 0.3162 µM) was 0.934. The relative viability (NCI-H2347; first compound 1 µM) was 1.17, the relative viability (NCI-H1395; first compound 0.01 µM) was 1.04 and the relative viability (NCI-H1395; first compound 0.03162 µM) was 1.06. For the same compound, the relative viability (NCI-H1395; first compound 0.1 µM) was 1.05, the relative viability (NCI-H1395; first compound 0.3162 µM) was 0.543 and the relative viability (NCI-H1395; first compound 1 µM) was 0.362. The relative viability (NCI-H2023; first compound 0.01 µM) was 0.601, the relative viability (NCI-H2023; first compound 0.03162 µM) was 0.758 and the relative viability (NCI-H2023; first compound 0.1 µM) was 0.366. For the same compound, the relative viability (NCI-H2023; first compound 0.3162 µM) was 0.198, the relative viability (NCI-H2023; first compound 1 µM) was 0.102 and the relative viability (NCI-H650; first compound 0.01 µM) was 1.04. The relative viability (NCI-H650; first compound 0.03162 µM) was 1.11, the relative viability (NCI-H650; first compound 0.1 µM) was 0.813 and the relative viability (NCI-H650; first compound 0.3162 µM) was 0.747. For the same compound, the relative viability (NCI-H650; first compound 1 µM) was 0.827, the relative viability (NCI-H2126; first compound 0.01 µM) was 0.774 and the relative viability (NCI-H2126; first compound 0.03162 µM) was 0.82. The relative viability (NCI-H2126; first compound 0.1 µM) was 0.834, the relative viability (NCI-H2126; first compound 0.3162 µM) was 0.803 and the relative viability (NCI-H2126; first compound 1 µM) was 0.821. For the same compound, the relative viability (NCI-H3122; first compound 0.01 µM) was 0.978, the relative viability (NCI-H3122; first compound 0.03162 µM) was 1.06 and the relative viability (NCI-H3122; first compound 0.1 µM) was 1.03. It also gave a relative viability (NCI-H3122; first compound 0.3162 µM) of 0.907, a relative viability (NCI-H3122; first compound 1 µM) of 1.09 and a relative viability (NCI-H838; first compound 0.01 µM) of 0.917. For the same compound, the relative viability (NCI-H838; first compound 0.03162 µM) was 0.908, the relative viability (NCI-H838; first compound 0.1 µM) was 1.07 and the relative viability (NCI-H838; first compound 0.3162 µM) was 0.903. It also gave a relative viability (NCI-H838; first compound 1 µM) of 0.268, a relative viability (NCI-H1993; first compound 0.01 µM) of 0.791 and a relative viability (NCI-H1993; first compound 0.03162 µM) of 0.789. It also gave a relative viability (NCI-H1993; first compound 0.1 µM) of 0.664, a relative viability (NCI-H1993; first compound 0.3162 µM) of 0.89 and a relative viability (NCI-H1993; first compound 1 µM) of 0.793. It also gave a relative viability (NCI-H2087; first compound 0.01 µM) of 1.23, a relative viability (NCI-H2087; first compound 0.03162 µM) of 1.01 and a relative viability (NCI-H2087; first compound 0.1 µM) of 1.01. For the same compound, the relative viability (NCI-H2087; first compound 0.3162 µM) was 1.24, the relative viability (NCI-H2087; first compound 1 µM) was 1.16 and the relative viability (NCI-H596; first compound 0.01 µM) was 1.11. The relative viability (NCI-H596; first compound 0.03162 µM) was 1.01, the relative viability (NCI-H596; first compound 0.1 µM) was 1.13 and the relative viability (NCI-H596; first compound 0.3162 µM) was 1.11. It also gave a relative viability (NCI-H596; first compound 1 µM) of 0.891, a relative viability (HCC-44; first compound 0.01 µM) of 1.11 and a relative viability (HCC-44; first compound 0.03162 µM) of 0.952. The relative viability (HCC-44; first compound 0.1 µM) was 0.998, the relative viability (HCC-44; first compound 0.3162 µM) was 0.932 and the relative viability (HCC-44; first compound 1 µM) was 0.99. For the same compound, the relative viability (NCI-H1666; first compound 0.01 µM) was 0.671, the relative viability (NCI-H1666; first compound 0.03162 µM) was 0.821 and the relative viability (NCI-H1666; first compound 0.1 µM) was 0.73. The relative viability (NCI-H1666; first compound 0.3162 µM) was 0.629, the relative viability (NCI-H1666; first compound 1 µM) was 0.708 and the relative viability (201T; first compound 0.01 µM) was 1.03. It also gave a relative viability (201T; first compound 0.03162 µM) of 0.99, a relative viability (201T; first compound 0.1 µM) of 1.03 and a relative viability (201T; first compound 0.3162 µM) of 1.15. It also gave a relative viability (201T; first compound 1 µM) of 1.15, a relative viability (HARA; first compound 0.01 µM) of 0.851 and a relative viability (HARA; first compound 0.03162 µM) of 0.763. The relative viability (HARA; first compound 0.1 µM) was 0.759, the relative viability (HARA; first compound 0.3162 µM) was 0.781 and the relative viability (HARA; first compound 1 µM) was 0.256. For the same compound, the relative viability (NCI-H727; first compound 0.01 µM) was 0.891, the relative viability (NCI-H727; first compound 0.03162 µM) was 0.985 and the relative viability (NCI-H727; first compound 0.1 µM) was 0.578. The relative viability (NCI-H727; first compound 0.3162 µM) was 0.36, the relative viability (NCI-H727; first compound 1 µM) was 0.271 and the relative viability (NCI-H2009; first compound 0.01 µM) was 1.25. For the same compound, the relative viability (NCI-H2009; first compound 0.03162 µM) was 1.04, the relative viability (NCI-H2009; first compound 0.1 µM) was 1 and the relative viability (NCI-H2009; first compound 0.3162 µM) was 0.896. For the same compound, the relative viability (NCI-H2009; first compound 1 µM) was 0.518, the relative viability (BEN; first compound 0.01 µM) was 0.788 and the relative viability (BEN; first compound 0.03162 µM) was 0.623. For the same compound, the relative viability (BEN; first compound 0.1 µM) was 0.566, the relative viability (BEN; first compound 0.3162 µM) was 0.833 and the relative viability (BEN; first compound 1 µM) was 0.488. For the same compound, the relative viability (LOU-NH91; first compound 0.01 µM) was 0.792, the relative viability (LOU-NH91; first compound 0.03162 µM) was 0.791 and the relative viability (LOU-NH91; first compound 0.1 µM) was 0.753. For the same compound, the relative viability (LOU-NH91; first compound 0.3162 µM) was 0.572, the relative viability (LOU-NH91; first compound 1 µM) was 0.639 and the relative viability (NCI-H647; first compound 0.01 µM) was 1.14. It also gave a relative viability (NCI-H647; first compound 0.03162 µM) of 1.12, a relative viability (NCI-H647; first compound 0.1 µM) of 0.963 and a relative viability (NCI-H647; first compound 0.3162 µM) of 0.519. The relative viability (NCI-H647; first compound 1 µM) was 0.0944, the relative viability (EMC-BAC-2; first compound 0.01 µM) was 0.908 and the relative viability (EMC-BAC-2; first compound 0.03162 µM) was 0.929. The relative viability (EMC-BAC-2; first compound 0.1 µM) was 0.919, the relative viability (EMC-BAC-2; first compound 0.3162 µM) was 0.91 and the relative viability (EMC-BAC-2; first compound 1 µM) was 0.894.
